Assay results taken from US11807835B2, “Detergent compositions containing a stabilized enzyme by phosphonates” (ECOLAB USA INC., priority 2016, dated 2023).

Tested on: lipase
Assay: Lipase activity retention in detergent use solution (4000 ppm, 5 GPG water; p-nitrophenyl valerate, TRIS buffer pH 8.0)
Assay type: biochemical
Conditions: for Relative Lipase Enzyme Activity in a Use Solution of the All Ash Detergent Composition: Table 6F, 120º F.; for Relative Lipase Enzyme Activity: base formula
Method: The enzyme […] collected up to 4 hours, after a use solution was generated from the detergent composition. During the tests, the samples at different time points were collected and immediately frozen in an acetone/dry ice bath and stored in −80° C. before the activity of the enzyme was evaluated. For the use of such an assay, t=0 min was the reference point for 100% enzyme activity.
Assays of enzyme activity in formulations (% retention) were conducted to simulate a presoak condition in a beaker using the chemistry, temperature, and pH conditions relevant to manual warewash or presoak applications. Enzyme activity is an indicator of the stability of the enzyme in the detergent, specifically in an aqueous use solution within a sump (which is under conditions of high pH, temperature and dilution).
Enzyme activity under presoak or manual warewash conditions was traced quantitatively using a standard protease assay. Samples were prepared under bench top conditions, whereby the use solution from a detergent composition or detergent was obtained and maintained at a presoak or manual warewash temperature in a stirring water bath. After the time course for assessing enzyme stability is initiated, aliquots were taken at various time points and flash-frozen. A time=0 sample was prepared for each series by dissolving the detergent formulation at room temperature, mixing thoroughly, and flash freezing. Samples were thawed and diluted as necessary in an assay buffer usually for use in the protease assay. A glycine buffer at pH 9.0 is used here. The assay monitored the direct reaction of the protease on a small, commercially available peptidyl substrate, with liberation of the product providing correlation to the active enzyme content. The product was detected using a plate reader with an appreciable dynamic range (upper absorbance limit of the instrument >3.5). Enzyme activity levels were assessed relative to a calibration curve with average values for replicate tests used to map protease stability under presoak or manual warewash use conditions. Enzyme retention at each time point was calculated as the % enzyme activity relative to the time=0 sample.
The analysis by lipase and amylase assay was conducted similarly, except with a different substrate and buffers. For lipase activity, the substrate is p-nitrophenyl valerate, and for amylase, the substrate is an ethylidene substrate (EPS). The buffer used in lipase assay is TRIS (Tris(hydroxymethyl)aminomethane) buffer at pH 8.0, and in amylase assay HEPES (4-(2-hydroxyethyl)-1-piperazineethanesulfonic acid) buffer at pH 8.0.

## O=P(O)(O)CN(CP(=O)(O)O)CP(=O)(O)O [ATMP, Aminotri (methylene phosphonic acid)]
All ash formula, phosphonate 0.3 wt-%, time 0 min
  Relative Lipase Enzyme Activity in a Use Solution of the All Ash Detergent Composition: 100.00%
All ash formula, phosphonate 0.3 wt-%, time 5 min
  Relative Lipase Enzyme Activity in a Use Solution of the All Ash Detergent Composition: 61.64%
All ash formula, phosphonate 0.3 wt-%, time 10 min
  Relative Lipase Enzyme Activity in a Use Solution of the All Ash Detergent Composition: 63.66%
All ash formula, phosphonate 0.3 wt-%, time 20 min
  Relative Lipase Enzyme Activity in a Use Solution of the All Ash Detergent Composition: 54.08%
All ash formula, phosphonate 0.3 wt-%, time 40 min
  Relative Lipase Enzyme Activity in a Use Solution of the All Ash Detergent Composition: 41.20%
All ash formula, phosphonate 0.3 wt-%, time 60 min
  Relative Lipase Enzyme Activity in a Use Solution of the All Ash Detergent Composition: 36.19%
All ash formula, phosphonate 0.3 wt-%, time 90 min
  Relative Lipase Enzyme Activity in a Use Solution of the All Ash Detergent Composition: 30.66%
All ash formula, phosphonate 0.3 wt-%, time 120 min
  Relative Lipase Enzyme Activity in a Use Solution of the All Ash Detergent Composition: 19.17%
All ash formula, phosphonate 0.3 wt-%, time 150 min
  Relative Lipase Enzyme Activity in a Use Solution of the All Ash Detergent Composition: 23.54%
All ash formula, phosphonate 0.3 wt-%, time 180 min
  Relative Lipase Enzyme Activity in a Use Solution of the All Ash Detergent Composition: 14.43%
All ash formula, phosphonate 0.3 wt-%, time 210 min
  Relative Lipase Enzyme Activity in a Use Solution of the All Ash Detergent Composition: 13.63%
All ash formula, phosphonate 0.3 wt-%, time 240 min
  Relative Lipase Enzyme Activity in a Use Solution of the All Ash Detergent Composition: 12.97%
All ash formula, versus same composition with PBTC or HEDP without amine(s), FIG. 6G
  lipase stability in all ash formula: more stable
Phosphonate 0.3 wt-%, use solution at 120° F., time 0 min
  Relative Lipase Enzyme Activity: 100.00%
Phosphonate 0.3 wt-%, use solution at 120° F., time 5 min
  Relative Lipase Enzyme Activity: 79.77%
Phosphonate 0.3 wt-%, use solution at 120° F., time 10 min
  Relative Lipase Enzyme Activity: 71.10%
Phosphonate 0.3 wt-%, use solution at 120° F., time 20 min
  Relative Lipase Enzyme Activity: 62.47%
Phosphonate 0.3 wt-%, use solution at 120° F., time 40 min
  Relative Lipase Enzyme Activity: 39.28%
Phosphonate 0.3 wt-%, use solution at 120° F., time 60 min
  Relative Lipase Enzyme Activity: 34.01%
Phosphonate 0.3 wt-%, use solution at 120° F., time 90 min
  Relative Lipase Enzyme Activity: 26.70%
Phosphonate 0.3 wt-%, use solution at 120° F., time 120 min
  Relative Lipase Enzyme Activity: 22.13%
Phosphonate 0.3 wt-%, use solution at 120° F., time 150 min
  Relative Lipase Enzyme Activity: 19.07%
Phosphonate 0.3 wt-%, use solution at 120° F., time 180 min
  Relative Lipase Enzyme Activity: 17.48%
Phosphonate 0.3 wt-%, use solution at 120° F., time 210 min
  Relative Lipase Enzyme Activity: 15.49%
Phosphonate 0.3 wt-%, use solution at 120° F., time 240 min
  Relative Lipase Enzyme Activity: 14.68%
Phosphonate 0.6 wt-%, use solution at 120º F., time 0 min
  Relative Lipase Enzyme Activity: 100.00%
Phosphonate 0.6 wt-%, use solution at 120º F., time 5 min
  Relative Lipase Enzyme Activity: 93.26%
Phosphonate 0.6 wt-%, use solution at 120º F., time 10 min
  Relative Lipase Enzyme Activity: 87.80%
Phosphonate 0.6 wt-%, use solution at 120º F., time 20 min
  Relative Lipase Enzyme Activity: 81.36%
Phosphonate 0.6 wt-%, use solution at 120º F., time 40 min
  Relative Lipase Enzyme Activity: 60.03%
Phosphonate 0.6 wt-%, use solution at 120º F., time 60 min
  Relative Lipase Enzyme Activity: 56.12%
Phosphonate 0.6 wt-%, use solution at 120º F., time 90 min
  Relative Lipase Enzyme Activity: 49.58%
Phosphonate 0.6 wt-%, use solution at 120º F., time 120 min
  Relative Lipase Enzyme Activity: 42.20%
Phosphonate 0.6 wt-%, use solution at 120º F., time 150 min
  Relative Lipase Enzyme Activity: 37.91%
Phosphonate 0.6 wt-%, use solution at 120º F., time 180 min
  Relative Lipase Enzyme Activity: 33.77%
Phosphonate 0.6 wt-%, use solution at 120º F., time 210 min
  Relative Lipase Enzyme Activity: 32.19%
Phosphonate 0.6 wt-%, use solution at 120º F., time 240 min
  Relative Lipase Enzyme Activity: 29.80%
Phosphonate at 0.1% elemental phosphorus, at 120º F. or at room temperature (as titled), time 0 min
  Relative Lipase Enzyme Activity: 100.00%
Phosphonate at 0.1% elemental phosphorus, at 120º F. or at room temperature (as titled), time 5 min
  Relative Lipase Enzyme Activity: 82.14%
Phosphonate at 0.1% elemental phosphorus, at 120º F. or at room temperature (as titled), time 10 min
  Relative Lipase Enzyme Activity: 78.45%
Phosphonate at 0.1% elemental phosphorus, at 120º F. or at room temperature (as titled), time 20 min
  Relative Lipase Enzyme Activity: 64.87%
Phosphonate at 0.1% elemental phosphorus, at 120º F. or at room temperature (as titled), time 40 min
  Relative Lipase Enzyme Activity: 45.84%
Phosphonate at 0.1% elemental phosphorus, at 120º F. or at room temperature (as titled), time 60 min
  Relative Lipase Enzyme Activity: 37.66%
Phosphonate at 0.1% elemental phosphorus, at 120º F. or at room temperature (as titled), time 90 min
  Relative Lipase Enzyme Activity: 30.16%
Phosphonate at 0.1% elemental phosphorus, at 120º F. or at room temperature (as titled), time 120 min
  Relative Lipase Enzyme Activity: 25.91%
Phosphonate at 0.1% elemental phosphorus, at 120º F. or at room temperature (as titled), time 150 min
  Relative Lipase Enzyme Activity: 21.51%
Phosphonate at 0.1% elemental phosphorus, at 120º F. or at room temperature (as titled), time 180 min
  Relative Lipase Enzyme Activity: 15.43%
Phosphonate at 0.1% elemental phosphorus, at 120º F. or at room temperature (as titled), time 210 min
  Relative Lipase Enzyme Activity: 17.94%
Phosphonate at 0.1% elemental phosphorus, at 120º F. or at room temperature (as titled), time 240 min
  Relative Lipase Enzyme Activity: 15.64%
